Measured values taken from ChEMBL document CHEMBL3045026, “Cytotoxic clerodane diterpenes from Glossocarya calcicola” (Phytochemistry, 2005).
Converted amounts (≈) assume the structure as drawn.

Experiments:
HepG2 = test: Cytotoxicity against Homo sapiens (human) HepG2 cells; assay type: functional, cell-based
[1] = Cytotoxicity against Drosophila melanogaster D.mel-2 cells; assay type: functional, cell-based

| SMILES | IC50 (HepG2) [µg/mL] | IC50 [1] [µg/mL] |
| --- | --- | --- |
| C=C1CC[C@@H](OC(=O)C(C)C)[C@H]2[C@@]1(C)[C@@H](O)C(=O)C(=C)[C@]2(C)C[C@@H](OC(=O)/C(C)=C/C)[C@]1(O)COC(=O)C1 (relative stereo) | 2.06 (≈ 3.87 µM) | 9.04 (≈ 17 µM) |
| C=C1CC[C@@H](OC(=O)C(C)CC)[C@H]2[C@@]1(C)[C@@H](O)C(=O)C(=C)[C@]2(C)C[C@@H](OC(=O)/C(C)=C/C)[C@]1(O)COC(=O)C1 (relative stereo) | 2.1 (≈ 3.84 µM) | 8.3 (≈ 15.2 µM) |
